Assay results taken from patent publication US8445691B2, “Heterocyclic thiosubstituted alkanol derivatives” (Bayer CropScience AG, priority 2010, dated 2013).

Assays:
[1] = test system: Blumeria graminis f.sp. hordei; experiment: Blumeria graminis test (barley) / protective; assay type: in vivo; conditions: 500 ppm active ingredient, protective spray on young barley plants, evaluation 7 days after inoculation; 0% = control, 100% = no infection
Description: Blumeria graminis Test (Barley)/Protective
(§1) • Solvent: 49 parts by weight of N,N-dimethylacetamide • Emulsifier: 1 part by weight of alkylaryl polyglycol ether
To produce an appropriate active ingredient formulation, 1 part by weight of active ingredient is mixed with the specified amounts of solvent and emulsifier, and the concentrate is diluted with water to the desired concentration. To test for protective activity, young plants are sprayed with the formulation of active ingredient at the stated application rate. After the spray coating has dried on, the plants are dusted with spores of Blumeria graminis f.sp. hordei. The plants are placed in a greenhouse at a temperature of about 18° C. and a relative air humidity of about 80% to promote the development of mildew pustules. Evaluation follows 7 days after the inoculation. 0% means an efficacy which corresponds to that of the control, whereas an efficacy of 100% means that no infection is observed.

Leptosphaeria nodorum = Leptosphaeria nodorum test (wheat) / protective; assay type: in vivo; conditions: 500 ppm active ingredient, protective spray on young wheat plants, evaluation 8 days after inoculation; 0% = control, 100% = no infection
Description: Leptosphaeria nodorum Test (Wheat)/Protective
as §1
To produce an appropriate active ingredient formulation, I part by weight of active ingredient is mixed with the specified amounts of solvent and emulsifier, and the concentrate is diluted with water to the desired concentration. To test for protective activity, young plants are sprayed with the formulation of active ingredient at the stated application rate. After the spray coating has dried on, the plants are sprayed with spores with a spore suspension of Leptosphaeria nodorum. The plants remain in an incubation cabin at 20° C. and 100% relative air humidity for 48 hours. The plants are placed in a greenhouse at a temperature of about 22° C. and a relative air humidity of about 80%. Evaluation follows 8 days after the inoculation. 0% means an efficacy which corresponds to that of the control, whereas an efficacy of 100% means that no infection is observed.

[2] = logP by reversed-phase HPLC (EEC Directive 79/831 Annex V.A8); assay type: physicochemical; conditions: method [a]: LC-MS, acidic range pH 2.7, 0.1% aqueous formic acid / acetonitrile, linear gradient 10% to 95% acetonitrile
Description: The logP values were measured in accordance with EEC Directive 79/831 Annex V.A8 by HPLC (High Performance Liquid Chromatography) using reversed-phase columns (C 18) by the following methods:
[a] The LC-MS determination in the acidic range is effected at pH 2.7 with 0.1% aqueous formic acid and acetonitrile (contains 0.1% formic acid) as eluents; linear gradient from 10% acetonitrile to 95% acetonitrile.

Alternaria solani = experiment: Alternaria test (tomato) / protective; assay type: in vivo; conditions: 500 ppm active ingredient, protective spray on young tomato plants, evaluation 7 days after inoculation; 0% = control, 100% = no infection
Description: Alternaria Test (Tomato)/Protective
(§2) • Solvent: 49 parts by weight of N,N-dimethylformamide • Emulsifier: 1 part by weight of alkylaryl polyglycol ether
To produce an appropriate active ingredient formulation, 1 part by weight of active ingredient is mixed with the specified amounts of solvent and emulsifier, and the concentrate is diluted with water to the desired concentration. To test for protective activity, young tomato plants are sprayed with the active ingredient formulation at the stated application rate. One day after the treatment, the plants are inoculated with a spore suspension of Alternaria solani and are then left to stand at 100% relative humidity and 22° C. for 24 h. Subsequently, the plants are left to stand at 96% relative air humidity and a temperature of 20° C. Evaluation follows 7 days after the […]. 0% means an efficacy which corresponds to that of the control, whereas an efficacy of 100% means that no infection is observed.

Sphaerotheca fuliginea = experiment: Sphaerotheca test (cucumber) / protective; assay type: in vivo; conditions: 500 ppm active ingredient, protective spray on young cucumber plants, evaluation 7 days after inoculation; 0% = control, 100% = no infection
Description: Sphaerotheca Test (Cucumber)/Protective
as §2
To produce an appropriate active ingredient formulation, 1 part by weight of active ingredient is mixed with the specified amounts of solvent and emulsifier, and the concentrate is diluted with water to the desired concentration. To test for protective activity, young cucumber plants are sprayed with the formulation of active ingredient at the stated application rate. 1 day after the treatment, the plants are inoculated with a spore suspension of Sphaerotheca fuliginea. The plants are then placed in a greenhouse at 70% relative air humidity and a temperature of 23° C. Evaluation follows 7 days after the inoculation. 0% means an efficacy which corresponds to that of the control, whereas an efficacy of 100% means that no infection is observed.

Compound: CC(C)(C)C(O)(CSc1ccc(Br)cc1)c1cncs1 (stereo not shown) [Compound 1, 1-[(4-bromophenyl)sulphanyl]-3,3-dimethyl-2-(1,3-thiazol-5-yl)butan-2-ol]
- efficacy [1]: 89%
- efficacy (Leptosphaeria nodorum): 92%

Compound: CC(CF)(CF)C(O)(CSc1ccc(Br)cc1)c1cncs1 (stereo not shown) [Compound 3]
- efficacy [1]: 100%
- chromatographic logP ([2]; reversed-phase C18 HPLC column): 3.27
- efficacy (Leptosphaeria nodorum): 100%

Compound: CC(C)(C)C(O)(CSc1ccc(C(F)(F)F)cc1)c1cncs1 (stereo not shown) [Compound 57]
- efficacy (Alternaria solani): 100%
- efficacy [1]: 80%
- efficacy (Sphaerotheca fuliginea): 80%
- logP ([2]; C18 reversed phase): log p 3.76^[a]
- efficacy (Leptosphaeria nodorum): 90%
